The source of these data is patent US20180263996A1, “ARYL SULTAM DERIVATIVES AS RORc MODULATORS” (Genentech, Inc., priority 2015, published 2018).

This experiment deals with T1, RORc (Homo sapiens, UniProt P51449).
T1 construct: host or cells: E. coli
T1 sequence (P51449 269-508 limits assumed): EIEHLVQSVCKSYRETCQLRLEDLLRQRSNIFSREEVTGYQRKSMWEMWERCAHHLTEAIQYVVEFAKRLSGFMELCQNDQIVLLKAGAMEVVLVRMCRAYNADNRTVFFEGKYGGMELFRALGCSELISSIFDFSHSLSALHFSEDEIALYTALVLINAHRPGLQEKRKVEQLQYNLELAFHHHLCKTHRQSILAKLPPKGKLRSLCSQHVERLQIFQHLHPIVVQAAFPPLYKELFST
Description: In Vitro RORc Ligand Binding Assay. Conditions: IC50 values for RORc. On the procedure:
This assay was used to determine a compound's potency in inhibiting activity of RORc by determining, Kiapp, IC50, or percent inhibition values.
On day of the assay, 100 uL of 0.05% CHAPS (in deionized H2O) was added to all wells of the GFB Unifilter plate and allowed soak for 1 h. A wash buffer of 50 mM HEPES (pH 7.4), 150 mM NaCl, and 5 mM MgCl2 was prepared to wash the filter plate. To prepare an assay buffer, BSA was added to the wash buffer to reach 0.01% and DTT was added to reach 1 mM.
The 20× compound stocks were diluted in DMSO with Assay Buffer 4-fold to reach 5× the final test concentration in 25% DMSO (10 uL compound+30 uL Assay Buffer). Solutions were mixed by aspiration several times with a pipette set on 50 uL volume.
For two point screening, 10 mM stock compound solutions were diluted in DMSO to obtain 200 uM (20× the high test concentration) and then diluted 10-fold further to reach 20 uM (20× the low test concentration). The 20× stocks were diluted 4-fold with Assay Buffer (10 uL compound+30 uL Assay Buffer) to reach 5× the test concentrations (50 uM and 5 uM) and 10 uL were added to two assay plates for the duplicate wells. With each concentration tested on 2 plates, each set of 80 compounds used 4 assay plates (1 uM and 10 uM, with n=2).
For 25-hydroxycholesterol in 25% DMSO/75% Assay Buffer; 10 uL per well was used for NSB samples. Wells for Total Binding and No Receptor sample determination contained 10 uL of 25% DMSO/75% Assay Buffer per well.
Add 20 uL to all wells to reach 6 nM final concentration in the assay.
Stock receptor solution was diluted in assay buffer to obtain 1.5 ug/mL in Assay Buffer. 20 uL was added to all wells. For No Receptor samples, 20 uL Assay Buffer was substituted for receptor solution.
Assay plates were 96-well polypropylene V-bottom plates. […] 10 uL of 25% DMSO/75% Assay Buffer was added to Total Binding or No Receptor wells. 10 uL of 5 uM 25-hydroxycholesterol in 25% DMSO/75% Assay Buffer was added to NSB wells. […] 20 uL of 1.5 ug/mL RORc receptor was added to wells (or 40 uL Assay Buffer to No R wells). Following addition to the wells, the plates were incubated 3 h at 25° C.
Using a Packard Filtermate Harvester, the filter plate were washed 4 times following transfer of the incubated samples. Plates were dry-filtered completely (2 h at 50° C. or overnight at room temperature). 50 uL Microscint 0 was added to all wells and read on Topcount protocol Inverted.
Final concentrations were as follows: 50 mM HEPES buffer (pH 7.4); 150 mM NaCl; 1 mM DTT; 5 mM MgCl2; 0.01% BSA; 5% DMSO; 0.6 ug/mL RORc receptor; 6 nM 25-[^3H]hydroxycholesterol. For NSB wells, 1 uM 25-hydroxycholesterol was also present.

For orientation: IC50 means the point on the concentration scale where inhibition reaches its midpoint. A lower IC50 goes with greater potency in that assay. Take `C[C@H]1CC[C@H](c2ccccc2)S(=O)(=O)N1Cc1cc(F)c(C2(NCC(N)=O)CC(F)(F)C2)cc1F` [Compound 21, 2-[[1-[2,5-difluoro-4-[[(3S,6R)-3-methyl-1,1-dioxo-6-phenyl-thiazinan-2-yl]methyl]phenyl]-3,3-difluoro-cyclobutyl]amino]acetamide]: the IC50 is 1.5 nM.
`C[C@@H](NC1=CC(=O)CCC1)c1cc(F)c(CN2[C@@H](C)CC[C@H](c3ccccc3)S2(=O)=O)cc1F` [Compound 22, 3-[[(1R)-1-[2,5-difluoro-4-[[(3S,6R)-3-methyl-1,1-dioxo-6-phenyl-thiazinan-2-yl]methyl]phenyl]ethyl]amino] cylohex-2-en-1-one] showed an IC50 of 265 nM.
With `C[C@H](NC1=CC(=O)CCC1)c1cc(F)c(CN2[C@@H](C)CC[C@H](c3ccccc3)S2(=O)=O)cc1F` [Compound 26, 3-[[(1S)-1-[2,5-difluoro-4-[[(3S,6R)-3-methyl-1,1-dioxo-6-phenyl-thiazinan-2-yl]methyl]phenyl]ethyl]amino] cyclohex-2-en-1-one], the IC50 is 131 nM.
In the case of `C[C@H]1CC[C@H](c2ccccc2)S(=O)(=O)N1Cc1cc(F)c(C23CC(C)(C2)OC3=O)cc1F` [Compound 27, 4-[2,5-difluoro-4-[[(3S,6R)-3-methyl-1,1-dioxo-6-phenyl-thiazinan-2-yl]methyl]phenyl]-1-methyl-2-oxabicyclo[2.1.1]hexan-3-one] it was 21.7 nM; in that of `CNC(=C[N+](=O)[O-])NC(C)c1cc(F)c(CN2C(C)CCC(c3ccccc3)S2(=O)=O)cc1F` [Compound 28, N1′-[1-[2,5-difluoro-4-[[(3S,6R)-3-methyl-1,1-dioxo-6-phenyl-thiazinan-2-yl]methyl]phenyl]ethyl]-N1-methyl-2-nitro-ethene-1,1-diamine], 20 nM.
In the case of `CC(NCC(N)=O)c1cc(F)c(CN2[C@@H](C)CC[C@H](c3ccccc3)S2(=O)=O)cc1F` (stereo partly drawn) [Compound 29, 2-[1-[2,5-difluoro-4-[[(3S,6R)-3-methyl-1,1-dioxo-6-phenyl-thiazinan-2-yl]methyl]phenyl]ethylamino] acetamide] it was 56.4 nM; in that of `C[C@H]1CC[C@H](c2ccccc2)S(=O)(=O)N1Cc1ccc(C2(C(=O)NC3CC3)CCOCC2)cc1F` [Compound 30, N-cyclopropyl-4-[3-fluoro-4-[[(3S,6R)-3-methyl-1,1-dioxo-6-phenyl-thiazinan-2-yl]methyl]phenyl]tetrahydropyran-4-carboxamide], 129 nM; in that of `C[C@H]1CC[C@H](c2ccccc2)S(=O)(=O)N1Cc1ccc(C2(C(=O)NCC3CC3)CCOCC2)cc1F` [Compound 31, N-(cyclopropylmethyl)-4-[3-fluoro-4-[[(3S,6R)-3-methyl-1,1-dioxo-6-phenyl-thiazinan-2-yl]methyl]phenyl]tetrahydropyran-4-carboxamide], 83.5 nM.
Consider `CO[C@H]1C[C@@H](NC(=O)C2(c3ccc(CN4[C@@H](C)CC[C@H](c5ccccc5)S4(=O)=O)c(F)c3)CCOCC2)C1` [Compound 32, 4-[3-fluoro-4-[[(3S,6R)-3-methyl-1,1-dioxo-6-phenyl-thiazinan-2-yl]methyl]phenyl]-N-(3-methoxycyclobutyl)tetrahydropyran-4-carboxamide], for which the IC50 came out at 53.5 nM.
The compound `C[C@H]1CC[C@H](c2ccccc2)S(=O)(=O)N1Cc1ccc(C2(C(=O)NC3CC(O)C3)CCOCC2)cc1F` (stereo partly drawn) [Compound 34, 4-[3-fluoro-4-[[(3S,6R)-3-methyl-1,1-dioxo-6-phenyl-thiazinan-2-yl]methyl]phenyl]-N-(3-hydroxycyclobutyl)tetrahydropyran-4-carboxamide] came in with an IC50 of 13.6 nM.
In the case of `C[C@H]1CC[C@H](c2ccccc2)S(=O)(=O)N1Cc1ccc(C2(C(=O)NC3(CO)CC3)CCOCC2)cc1F` [Compound 35, 4-[3-fluoro-4-[[(3S,6R)-3-methyl-1,1-dioxo-6-phenyl-thiazinan-2-yl]methyl]phenyl]-N-[1-(hydroxymethyl)cyclopropyl] tetrahydropyran-4-carboxamide] it was 42.9 nM.
In the case of `C[C@H]1CC[C@H](c2ccccc2)S(=O)(=O)N1Cc1cc(F)c(C2(C(=O)N[C@H]3C[C@H](O)C3)CCOCC2)cc1F` [Compound 37, 4-[2,5-difluoro-4-[[(3S,6R)-3-methyl-1,1-dioxo-6-phenyl-thiazinan-2-yl]methyl]phenyl]-N-(3-hydroxycyclobutyl) tetrahydropyran-4-carboxamide] it was 47.6 nM; in that of `C[C@H]1CC[C@H](c2ccccc2)S(=O)(=O)N1Cc1cc(F)c(C2(C(=O)N[C@H]3C[C@@H](O)C3)CCOCC2)cc1F` [Compound 38, 4-[2,5-difluoro-4-[[(3S,6R)-3-methyl-1,1-dioxo-6-phenyl-thiazinan-2-yl]methyl]phenyl]-N-(3-hydroxycyclobutyl) tetrahydropyran-4-carboxamide], 32.6 nM.
`C[C@H]1CC[C@H](c2ccccc2)S(=O)(=O)N1Cc1cc(F)c(C2(OCC(=O)NC3CC3)CCOCC2)cc1F` [Compound 41, N-cyclopropyl-2-[4-[2,5-difluoro-4-[[(3S,6R)-3-methyl-1,1-dioxo-6-phenyl-thiazinan-2-yl]methyl]phenyl]tetrahydropyran-4-yl]oxy-acetamide] returned an IC50 of 6.8 nM.
In the case of `C[C@H]1CC[C@H](c2ccccc2)S(=O)(=O)N1Cc1cc(F)c([C@@]23C[C@@H]2COC3=O)cc1F` [Compound 43, (1R,5S)-1-[2,5-difluoro-4-[[(3S,6R)-3-methyl-1,1-dioxo-6-phenyl-thiazinan-2-yl]methyl]phenyl]-3-oxabicyclo[3.1.0]hexan-2-one] it was 39.4 nM; in that of `C[C@H]1CC[C@H](c2ccccc2)S(=O)(=O)N1Cc1cc(F)c(C2(C(N)=O)CC(CC#N)C2)cc1F` (stereo partly drawn) [Compound 44, 3-(cyanomethyl)-1-[2,5-difluoro-4-[[(3S,6R)-3-methyl-1,1-dioxo-6-phenyl-thiazinan-2-yl]methyl]phenyl]cyclobutane-carboxamide], 18.5 nM; in that of `CN/C(=C\C#N)NC(C)c1cc(F)c(CN2[C@@H](C)CC[C@H](c3ccccc3)S2(=O)=O)cc1F` (stereo partly drawn) [Compound 45, 3-[1-[2,5-difluoro-4-[[(3S,6R)-3-methyl-1,1-dioxo-6-phenyl-thiazinan-2-yl]methyl]phenyl]ethylamino]-3-(methylamino)prop-2-enenitrile; formic acid], 695 nM.
`C[C@H]1CC[C@H](c2ccccc2)S(=O)(=O)N1Cc1cc(F)c([C@]2(C(N)=O)C[C@](C)(O)C2)cc1F` [Compound 48, 1-[2,5-difluoro-4-[[(3S,6R)-3-methyl-1,1-dioxo-6-phenyl-thiazinan-2-yl]methyl]phenyl]-3-hydroxy-3-methyl-cyclobutanecarboxamide] came in with an IC50 of 4.7 nM.
In the case of `C[C@H]1CC[C@H](c2ccccc2)S(=O)(=O)N1Cc1cc(F)c([C@]2(C(N)=O)C[C@@](C)(O)C2)cc1F` [Compound 49, 1-[2,5-difluoro-4-[[(3S,6R)-3-methyl-1,1-dioxo-6-phenyl-thiazinan-2-yl]methyl]phenyl]-3-hydroxy-3-methyl-cyclobutanecarboxamide] it was 199 nM; in that of `CC(NCc1cnoc1)c1cc(F)c(CN2[C@@H](C)CC[C@H](c3ccccc3)S2(=O)=O)cc1F` (stereo partly drawn) [Compound 50, 1-[2,5-difluoro-4-[[(3S,6R)-3-methyl-1,1-dioxo-6-phenyl-thiazinan-2-yl]methyl]phenyl]-N-(isoxazol-4-ylmethyl)ethanamine], 22 nM.
